{"source": "paper PMC11157103", "about": "“Exploration of morpholine-thiophene hybrid thiosemicarbazones for the treatment of ureolytic bacterial infections via targeting urease enzyme: Synthesis, biochemical screening and computational analysis” (Frontiers in Chemistry, 2024)", "key": {"[1]": {"molecular_target": "jack bean urease (Canavalia ensiformis, UniProt P07374)", "sequence (P07374 whole entry, looked up)": "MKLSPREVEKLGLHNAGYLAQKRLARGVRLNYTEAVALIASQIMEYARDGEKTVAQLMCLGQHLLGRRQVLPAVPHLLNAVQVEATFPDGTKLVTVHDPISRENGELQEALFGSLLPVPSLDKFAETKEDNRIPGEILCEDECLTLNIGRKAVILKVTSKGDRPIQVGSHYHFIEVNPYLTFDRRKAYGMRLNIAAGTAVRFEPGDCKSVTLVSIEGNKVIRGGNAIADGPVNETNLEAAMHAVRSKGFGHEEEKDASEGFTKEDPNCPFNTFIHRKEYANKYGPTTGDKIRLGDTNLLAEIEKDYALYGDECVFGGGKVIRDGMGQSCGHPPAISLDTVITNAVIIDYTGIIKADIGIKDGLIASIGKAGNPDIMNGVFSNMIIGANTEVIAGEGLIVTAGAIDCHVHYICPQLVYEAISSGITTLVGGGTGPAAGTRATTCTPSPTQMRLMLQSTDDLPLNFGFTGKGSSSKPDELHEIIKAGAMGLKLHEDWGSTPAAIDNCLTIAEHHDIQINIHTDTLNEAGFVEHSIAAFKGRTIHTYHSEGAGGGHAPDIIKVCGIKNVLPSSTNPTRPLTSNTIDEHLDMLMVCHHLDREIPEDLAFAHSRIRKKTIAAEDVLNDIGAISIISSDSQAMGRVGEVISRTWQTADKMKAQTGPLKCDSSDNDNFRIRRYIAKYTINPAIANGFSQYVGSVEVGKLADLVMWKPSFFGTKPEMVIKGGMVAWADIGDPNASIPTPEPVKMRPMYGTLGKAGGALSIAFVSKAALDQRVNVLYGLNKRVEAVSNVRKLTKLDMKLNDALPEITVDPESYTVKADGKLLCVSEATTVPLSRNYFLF", "experiment": "biochemical", "format": "biochemical", "conditions": "for fold stronger inhibitory potential than thiourea: relative to thiourea IC50", "experimental": "The indophenol method with a little modification was used to determine the urease inhibitory activity of synthetic compounds (5a-i) ([Weatherburn, 1967]; [Yaseen et al., 2016]). Thiourea was used as a standard inhibitor. The assay mixture was comprised of 40 μL of buffer (100 mmol/L urea, 0.01 mol/L K2HPO4, 1 mmol/L EDTA and 0.01 mol/L […], pH 8.2), 10 μL of jack bean urease (5 U/mL) and 10 μL of test compound (1 mM). The reaction mixture was incubated for 30 min with 10 μL urea (1 mM) at 37 °C in 96-well plate. The phenol reagent (40 μL, 1% w/v phenol, 0.005% w/v sodium nitroprusside) and alkali reagent (40 μL, 0.5% w/v NaOH, 0.1% active chloride NaOCl) were added to each well and after 10 min of incubation at 37 °C, the absorbance was measured at 630 nm using a microplate reader (Bio-Tek ELx 800™, Instruments, Inc. United States). The experiments to determine the inhibitory activity of compounds were performed in triplicates. The percentage inhibition was calculated by using the formula given below. Inhibition %=100 – Absorbance of the test compound/Absorbance of the control×100\nCompounds showing >50% inhibition against urease were further evaluated for the determination of IC50 values at various concentrations (0.1, 0.3, 1, 3, 10, 30, 100, 300, 1,000 μM) against jack bean urease. The experiments were performed in triplicate. IC50 values were calculated by using the non-linear curve fitting program PRISM 5.0 (GraphPad, San Diego, California, United States) to analyze the results."}, "[2]": {"molecular_target": "urease (Canavalia ensiformis, UniProt P07374)", "sequence (P07374 whole entry, looked up)": "as above", "experiment": "Kinetics analysis (Michaelis-Menten, Lineweaver-Burk plot)", "format": "biochemical, jack bean", "conditions": "urea 25-150 mM, inhibitor 0, 1.9, 3.8, 5.7 μM", "experimental": "These experiments helped in the assessment of K m and V max values to predict the mechanism of urease inhibition by plotting reciprocal of reaction rate 1/V (y-axis) against reciprocal of substrate concentrations 1/[S] (x-axis).\nThe rate of enzyme inhibition was accessed across numerous concentrations of substrate (25, 50, 100, 150 mM) and compound 5g (0, 1.9, 3.8, 5.7 μM) against urease. Afterwards, the data was plotted to obtain the Lineweaver-Burk plot by using GraphPad Prism version 10.2.1."}}, "note": "Like-named read-outs stand apart in the source and are kept apart here."}
{"molecule": "S=C(NCCN1CCOCC1)NN=Cc1cccs1", "note": "[Compound 5a, N-(2-morpholinoethyl)-2-(thiophen-2-ylmethylene)hydrazinecarbothioamide]", "values": [{"measurement": "IC50", "setting": "[1]", "value": "4.94 ± 2.7", "unit": "µM"}, {"measurement": "fold stronger inhibitory potential than thiourea", "setting": "[1]", "value": 4.5, "unit": "fold"}]}
{"molecule": "CC(=NNC(=S)NCCN1CCOCC1)c1cccs1", "note": "[Compound 5b, N-(2-morpholinoethyl)-2-(1-(thiophen-2-yl)ethylidene)hydrazinecarbothioamide]", "values": [{"measurement": "IC50", "setting": "[1]", "value": "4.96 ± 3", "unit": "µM"}, {"measurement": "melting point", "value": "142 to 144", "unit": "°C"}]}
{"molecule": "CC(=NNC(=S)NCCN1CCOCC1)c1cc(C)cs1", "note": "[Compound 5c, 2-(1-(4-Methylthiophen-2-yl)ethylidene)-N-(2-morpholinoethyl)hydrazinecarbothioamide]", "values": [{"measurement": "IC50", "setting": "[1]", "value": "4 ± 2.4", "unit": "µM"}, {"measurement": "melting point", "value": "112 to 114", "unit": "°C"}]}
{"molecule": "CC(=NNC(=S)NCCN1CCOCC1)c1ccc(C)s1", "note": "[Compound 5d, 2-(1-(5-Methylthiophen-2-yl)ethylidene)-N-(2-morpholinoethyl)hydrazinecarbothioamide]", "values": [{"measurement": "IC50", "setting": "[1]", "value": "4.6 ± 2.6", "unit": "µM"}, {"measurement": "fold stronger inhibitory potential than thiourea", "setting": "[1]", "value": 4.8, "unit": "fold"}, {"measurement": "melting point", "value": "156 to 158", "unit": "°C"}]}
{"molecule": "CC(=NNC(=S)NCCN1CCOCC1)c1sccc1Cl", "note": "[Compound 5e, 2-(1-(3-Chlorothiophen-2-yl)ethylidene)-N-(2-morpholinoethyl)hydrazinecarbothioamide]", "values": [{"measurement": "IC50", "setting": "[1]", "value": "4.81 ± 1.5", "unit": "µM"}, {"measurement": "melting point", "value": "116 to 118", "unit": "°C"}]}
{"molecule": "CC(=NNC(=S)NCCN1CCOCC1)c1sccc1Br", "note": "[Compound 5f, 2-(1-(3-Bromothiophen-2-yl)ethylidene)-N-(2-morpholinoethyl)hydrazinecarbothioamide]", "values": [{"measurement": "IC50", "setting": "[1]", "value": "5.77 ± 0.7", "unit": "µM"}, {"measurement": "melting point", "value": "124 to 126", "unit": "°C"}]}
{"molecule": "CC(=NNC(=S)NCCN1CCOCC1)c1ccc(Cl)s1", "note": "[Compound 5g, 2-(1-(5-Chlorothiophen-2-yl)ethylidene)-N-(2-morpholinoethyl)hydrazinecarbothioamide]", "values": [{"measurement": "mechanism of urease inhibition", "setting": "[2]", "value": "uncompetitive inhibition"}, {"measurement": "IC50", "setting": "[1]", "value": "3.8 ± 1.9", "unit": "µM"}, {"measurement": "melting point", "value": "148 to 150", "unit": "°C"}]}
{"molecule": "CC(=NNC(=S)NCCN1CCOCC1)c1ccc(Br)s1", "note": "[Compound 5h, 2-(1-(5-Bromothiophen-2-yl)ethylidene)-N-(2-morpholinoethyl)hydrazinecarbothioamide]", "values": [{"measurement": "IC50", "setting": "[1]", "value": "3.98 ± 2.2", "unit": "µM"}, {"measurement": "melting point", "value": "148 to 150", "unit": "°C"}]}
{"molecule": "CC(=NNC(=S)NCCN1CCOCC1)c1ccc([N+](=O)[O-])s1", "note": "[Compound 5i, N-(2-morpholinoethyl)-2-(1-(5-nitrothiophen-2-yl)ethylidene)hydrazinecarbothioamide]", "values": [{"measurement": "IC50", "setting": "[1]", "value": "3.9 ± 2.7", "unit": "µM"}, {"measurement": "melting point", "value": "192 to 194", "unit": "°C"}]}
{"molecule": "NC(N)=S", "note": "[Thiourea, reference compound]", "values": [{"measurement": "IC50", "setting": "[1]; jack bean urease, indophenol method, triplicate, read-out: Urease inhibition IC50 ± SEM", "value": "22.31 ± 0.03", "unit": "µM"}]}
